Assay results: patent US4804502A, “Vitamin D compounds” (priority 1988, dated 1989)

Legend:
[1] = test system: bone calcium mobilization; assay: Bone Calcium Mobilization in Rat (plasma Ca increase); type: in vivo; settings: intrajugular, 18 h
Procedure: Controls received carrier alone. Bone Ca resorption (BCR) was estimated by measuring the blood Ca increase in the treated rats. Blood was collected in heparinized tubes and centrifuged. The resulting plasma was measured for calcium concentration by atomic absorption spectroscopy. Since rats were fed a diet essentially devoid of Ca, plasma Ca increases reflected mobilization of Ca from bone, not intestinal Ca absorption.

[2] = biological target: T1, 1,25-(OH)2 D3 receptors (rat intestine) (Rattus norvegicus, UniProt P13053); assay: Competitive Binding to 1,25-(OH)2 D3 Intestine Receptors, rat; settings: a/b×100 from amounts displacing 50% of 1,25-(OH)2[3H]D3
T1 construct: receptor prepared from intestine of chick, rat and calf; from tissue; host or cells: rat proximal small-intestine mucosa, cytosol, 35% ammonium sulphate precipitate
T1 sequence (P13053 1-423): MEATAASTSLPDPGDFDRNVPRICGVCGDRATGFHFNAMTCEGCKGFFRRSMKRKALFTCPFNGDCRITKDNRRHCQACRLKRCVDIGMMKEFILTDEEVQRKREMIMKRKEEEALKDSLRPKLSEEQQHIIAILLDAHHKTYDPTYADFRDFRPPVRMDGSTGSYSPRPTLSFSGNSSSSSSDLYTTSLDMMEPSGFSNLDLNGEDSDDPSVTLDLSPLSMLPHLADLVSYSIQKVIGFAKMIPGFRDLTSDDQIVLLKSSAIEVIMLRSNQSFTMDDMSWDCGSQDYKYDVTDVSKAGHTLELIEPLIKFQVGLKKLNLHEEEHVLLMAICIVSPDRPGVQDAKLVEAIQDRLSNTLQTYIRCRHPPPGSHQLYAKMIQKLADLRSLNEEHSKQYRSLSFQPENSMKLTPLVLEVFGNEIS
Procedure: (§1) The ability of vitamin D3 metabolites to compete for 1,25-(OH)[^3 H]D3 receptor binding sites was evaluated with receptor prepared from intestine of chick, rat and calf. The receptor was prepared by removing 10-12% of the small intestine immediately adjacent to the pyloric spincter which was washed immediately with cold buffer containing 500 mM KCl, 50 mM Tris, 1.5 mM EDTA, and 5 mM dithiothreitol, pH 7.4 (KTED buffer). Mucosa was collected and washed three times with 10 volumes of cold KTED buffer. The washed mucosa was homogenized in KTED buffer (20% w/v) using a Polytron Pt20 tissue disruptor. Cytosol was prepared by centrifugation of the homogenized mucosa at 300,000×g for 1 hour. Receptor was precipitated from the cytosol by the addition of ammonium sulphate to achieve 35% saturation. The ammonium sulphate treated cytosol was centrifuged at 20,000×g for 10 minutes. The supernatant was discarded and the pellet lyophilized and stored at […] Prior to binding assay the pellet was resuspended in cold binding assay buffer containing 150 mM KCl, 50 mM NaPO4, 1.5 mM EDTA and 5 mM dithiothreitol.

[3] = biological target: T2, 1,25-(OH)2 D3 receptors (chick intestine) (Gallus gallus, UniProt O42392); assay: Competitive Binding to 1,25-(OH)2 D3 Intestine Receptors, chick; settings: a/b×100 from amounts displacing 50% of 1,25-(OH)2[3H]D3
T2 construct: receptor prepared from intestine of chick, rat and calf; from tissue; host or cells: chick proximal small-intestine mucosa, cytosol, 35% ammonium sulphate precipitate
T2 sequence (O42392 1-451): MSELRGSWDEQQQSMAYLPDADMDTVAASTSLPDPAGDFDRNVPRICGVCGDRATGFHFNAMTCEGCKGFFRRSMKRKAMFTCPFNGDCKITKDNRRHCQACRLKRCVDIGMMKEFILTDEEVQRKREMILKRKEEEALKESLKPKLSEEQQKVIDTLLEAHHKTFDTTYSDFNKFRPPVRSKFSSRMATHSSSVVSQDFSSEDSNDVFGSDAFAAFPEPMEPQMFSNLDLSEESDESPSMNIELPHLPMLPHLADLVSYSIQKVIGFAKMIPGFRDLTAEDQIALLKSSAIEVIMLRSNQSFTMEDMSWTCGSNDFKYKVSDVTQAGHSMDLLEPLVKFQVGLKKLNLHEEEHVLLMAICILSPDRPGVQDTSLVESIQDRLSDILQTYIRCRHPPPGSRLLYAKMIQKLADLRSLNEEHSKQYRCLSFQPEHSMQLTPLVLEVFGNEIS
Procedure: as §1, with “The receptor was prepared by removing 10-12% of the small intestine immediately adjacent to the pyloric spincter which was washed immediately with cold buffer containing 500 mM KCl, 50 mM Tris, 1.5 mM EDTA, and 5 mM dithiothreitol, pH 7.4 (KTED buffer).” left out, “Receptor was precipitated from the cytosol by the addition of ammonium sulphate to achieve 35% saturation.” left out

[4] = biological target: T3, 1,25-(OH)2 D3 receptors (calf intestine) (Bos taurus, UniProt Q28037); assay: Competitive Binding to 1,25-(OH)2 D3 Intestine Receptors, calf; settings: a/b×100 from amounts displacing 50% of 1,25-(OH)2[3H]D3
T3 construct: receptor prepared from intestine of chick, rat and calf; from tissue; host or cells: calf proximal small-intestine mucosa, cytosol, 35% ammonium sulphate precipitate
T3 sequence (Q28037 1-426): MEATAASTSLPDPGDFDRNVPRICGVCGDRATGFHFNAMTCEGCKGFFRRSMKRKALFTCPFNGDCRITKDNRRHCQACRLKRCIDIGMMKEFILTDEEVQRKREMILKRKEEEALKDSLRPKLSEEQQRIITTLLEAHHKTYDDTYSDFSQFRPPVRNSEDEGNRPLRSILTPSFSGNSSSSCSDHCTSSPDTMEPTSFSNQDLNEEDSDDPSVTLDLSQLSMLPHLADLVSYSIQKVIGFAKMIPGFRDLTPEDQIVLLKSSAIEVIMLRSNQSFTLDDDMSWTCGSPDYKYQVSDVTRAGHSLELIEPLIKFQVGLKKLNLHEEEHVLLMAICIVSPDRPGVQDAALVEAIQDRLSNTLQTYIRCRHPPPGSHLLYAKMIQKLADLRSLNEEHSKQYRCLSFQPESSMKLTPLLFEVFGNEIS
Procedure: as §1, with “The receptor was prepared by removing 10-12% of the small intestine immediately adjacent to the pyloric spincter which was washed immediately with cold buffer containing 500 mM KCl, 50 mM Tris, 1.5 mM EDTA, and 5 mM dithiothreitol, pH 7.4 (KTED buffer).” left out, “Receptor was precipitated from the cytosol by the addition of ammonium sulphate to achieve 35% saturation.” left out

[5] = test system: intestinal calcium absorption (duodenum); assay: Stimulation of Intestinal Calcium Absorption in Rat (intestinal 45Ca transport, everted gut sac); settings: intrajugular, 18 h

Competitive Binding to 1,25-(OH)2 D3 Receptors - % of 1,25-(OH)2 D3 Effect, rat intestine [2] | Competitive Binding to 1,25-(OH)2 D3 Receptors - % of 1,25-(OH)2 D3 Effect, chick intestine [3] | Competitive Binding to 1,25-(OH)2 D3 Receptors - % of 1,25-(OH)2 D3 Effect, calf intestine [4] | Compound | % of 1,25-(OH)2 D3 Effect in Rat, bone calcium mobilization ([1]; 15.5 ng/rat) | % of 1,25-(OH)2 D3 Effect in Rat, intestinal calcium absorption ([5]; 15.5 ng/rat) | % of 1,25-(OH)2 D3 Effect in Rat, bone calcium mobilization ([1]; 12.5 ng/rat) | % of 1,25-(OH)2 D3 Effect in Rat, intestinal calcium absorption ([5]; 12.5 ng/rat)
39% | 60% | 47% | C=C1/C(=C\C=C2/CCC[C@]3(C)[C@@H]([C@H](C)CC#CC(C)(C)O)CC[C@@H]23)C[C@@H](O)C[C@@H]1O [Compound A, 1α,25-dihydroxy-23-yne-cholecalciferol] | 15% | 95% | – | –
142% | 47% | 62% | C=C1/C(=C\C=C2/CCC[C@]3(C)[C@@H]([C@H](C)CC#CC(O)(C(F)(F)F)C(F)(F)F)CC[C@@H]23)C[C@@H](O)C[C@@H]1O [Compound B] | – | – | 0% | 124%
